Test results as given in US20230022157A1 (Achillion Pharmaceuticals, Inc., priority 2018, published 2023).

The compounds below were run against T1, Human Factor D (Homo sapiens, UniProt P00746) (assay: Human Factor D Assay). Details: Human Factor D 80 nM, substrate Z-L-Lys-SBzl, assay of Example 3; read-out: IC50 (Stars).
T1 construct: purified from human serum; purchased Complement Technology, Inc; host or cells: human serum (natural protein, not recombinant)
Assay type: biochemical
Method in brief: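 Serum-purified human factor D (80 nM final) preincubated 5 min at room temperature with test compound in 50 mM Tris, 1M NaCl, pH 7.5. Z-L-Lys-SBzl substrate and DTNB then added, each at 100 μM final. IC50 from nonlinear regression of reaction rate against compound concentration.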

T1 sequence (P00746 26-253): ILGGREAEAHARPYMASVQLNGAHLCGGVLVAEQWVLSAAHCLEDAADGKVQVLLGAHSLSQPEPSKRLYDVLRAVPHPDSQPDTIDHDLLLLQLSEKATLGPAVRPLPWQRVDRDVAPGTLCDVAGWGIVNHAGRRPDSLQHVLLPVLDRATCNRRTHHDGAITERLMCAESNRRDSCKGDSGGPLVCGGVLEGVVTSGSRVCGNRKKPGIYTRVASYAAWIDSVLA

Row | IC50 | Compound
1 | < 1000 nM | CC(=O)c1nn(CC(=O)N2C[C@H](F)C[C@H]2C(=O)Nc2cccc(Br)n2)c2ccc(-c3ccc(C)nc3)cc12 [Compound 33]
2 | < 1000 nM | CCC[C@@H](C)NC(=O)[C@@H]1C[C@@]2(C)C[C@H]2N1C(=O)Cn1nc(C(C)=O)c2cc(-c3cnc(C)nc3)ccc21 [Compound 16, (1R,3S,5R)-2-(2-(3-Acetyl-5-(2-methylpyrimidin-5-yl)-1H-indazol-1-yl)acetyl)-5-methyl-N—((R)-pentan-2-yl)-2-azabicyclo[3.1.0]hexane-3-carboxamide]
3 | 1000 to 10000 nM | CC(=O)c1nn(CC(=O)N2[C@H](C(=O)NCCc3ccncc3)C[C@@]3(C)C[C@@H]23)c2c(C)cc(-c3cnc(C)nc3)cc12 [Compound 8, (1R,3S,5R)-2-(2-(3-Acetyl-7-methyl-5-(2-methylpyrimidin-5-yl)-1H-indazol-1-yl)acetyl)-5-methyl-N-(2-(pyridin-4-yl)ethyl)-2-azabicyclo[3.1.0]hexane-3-carboxamide]

Same assay, conditions: Human Factor D 80 nM, substrate Z-L-Lys-SBzl; Table 2; read-out: IC50 (Stars)

Row | IC50 | Compound
4 | < 1000 nM | CC(=O)c1nn(CC(=O)N2[C@H](C(=O)NC(C)c3cccnn3)C[C@@]3(C)C[C@@H]23)c2c(C)cc(-c3cnc(C)nc3)cc12 (stereo partly drawn) [Compound 189, (1R,3S,5R)-2-{2-[3-acetyl-7-methyl-5-(2-methylpyrimidin-5-yl)indazol-1-yl]acetyl}-5-methyl-N-[1-(pyridazin-3-yl)ethyl]-2-azabicyclo[3.1.0]hexane-3-carboxamide]
5 | < 1000 nM | CC(=O)c1cn(CC(=O)N2[C@H](C(=O)Nc3cc(F)cc(Br)n3)C[C@@]3(C)C[C@@H]23)c2c(C)cc(-c3cnc(C)nc3)cc12 [Compound 192, (1R,3S,5R)-2-(2-(3-acetyl-7-methyl-5-(2-methylpyrimidin-5-yl)-1H-indol-1-yl)acetyl)-N-(6-bromo-4-fluoropyridin-2-yl)-5-methyl-2-azabicyclo[3.1.0]hexane-3-carboxamide]
6 | < 1000 nM | CC(=O)c1cn(CC(=O)N2[C@H](C(=O)Nc3nc(C(F)(F)F)ccc3C)C[C@@]3(C)C[C@@H]23)c2ccc(-c3cnc4cc(C)nn4c3)cc12 [Compound 203, (1R,3S,5R)-2-(2-(3-acetyl-5-(2-methylpyrazolo[1,5-a]pyrimidin-6-yl)-1H-indol-1-yl)acetyl)-5-methyl-N-(3-methyl-6-(trifluoromethyl)pyridin-2-yl)-2-azabicyclo[3.1.0]hexane-3-carboxamide]
7 | < 1000 nM | CC(=O)c1cn(CC(=O)N2[C@H](C(=O)Nc3nc(Br)c(F)cc3C)C[C@@]3(C)C[C@@H]23)c2ccc(-c3cnc4cc(C)nn4c3)cc12 [Compound 211, (1R,3S,5R)-2-(2-(3-acetyl-5-(2-methylpyrazolo[1,5-a]pyrimidin-6-yl)-1H-indol-1-yl)acetyl)-N-(6-bromo-5-fluoro-3-methylpyridin-2-yl)-5-methyl-2-azabicyclo[3.1.0]hexane-3-carboxamide]
8 | < 1000 nM | CC(=O)c1nn(CC(=O)N2[C@H](C(=O)Nc3nc(C(F)(F)F)ccc3C)C[C@@]3(C)C[C@@H]23)c2c(C)cc(-c3cnc(C)nc3)cc12 [Compound 236, (1R,3S,5R)-2-(2-(3-acetyl-7-methyl-5-(2-methylpyrimidin-5-yl)-1H-indazol-1-yl)acetyl)-5-methyl-N-(3-methyl-6-(trifluoromethyl)pyridin-2-yl)-2-azabicyclo[3.1.0]hexane-3-carboxamide]
9 | < 1000 nM | CC(=O)c1cn(CC(=O)N2[C@H](C(=O)Nc3ccc(F)c(Br)n3)C[C@@]3(C)C[C@@H]23)c2c(C)cc(-c3cnc(C)nc3)cc12 [Compound 194, (1R,3S,5R)-2-(2-(3-acetyl-7-methyl-5-(2-methylpyrimidin-5-yl)-1H-indol-1-yl)acetyl)-N-(6-bromo-5-fluoropyridin-2-yl)-5-methyl-2-azabicyclo[3.1.0]hexane-3-carboxamide]
10 | < 1000 nM | COC[C@@]12C[C@@H](C(=O)Nc3nc(C(F)(F)F)ccc3C)N(C(=O)Cn3cc(C(C)=O)c4cc(-c5cnc(C)nc5)cc(C)c43)[C@@H]1C2 [Compound 229, (1R,3S,5S)-2-(2-(3-acetyl-7-methyl-5-(2-methylpyrimidin-5-yl)-1H-indol-1-yl)acetyl)-5-(methoxymethyl)-N-(3-methyl-6-(trifluoromethyl)pyridin-2-yl)-2-azabicyclo[3.1.0]hexane-3-carboxamide]

The remaining lines, values behind:

Row | Compound | IC50
11 | CC(=O)c1nn(CC(=O)N2[C@H](C(=O)N[C@@H](c3ccccc3)C(F)(F)F)C[C@@]3(C)C[C@@H]23)c2c(C)cc(-c3cnc(C)nc3)cc12 [Compound 85, (1R,3S,5R)-2-{2-[3-acetyl-7-methyl-5-(2-methylpyrimidin-5-yl)indazol-1-yl]acetyl}-5-methyl-N-[(1S)-2,2,2-trifluoro-1-phenylethyl]-2-azabicyclo[3.1.0]hexane-3-carboxamide] | < 1000 nM
12 | COC(=O)c1ncc(-c2cc(C)c3c(c2)c(C(C)=O)nn3CC(=O)N2[C@H](C(=O)Nc3nc(C(F)(F)F)ccc3C)C[C@@]3(C)C[C@@H]23)cn1 [Compound 50, Methyl 5-(3-acetyl-7-methyl-1-(2-((1R,3S,5R)-5-methyl-3-((3-methyl-6-(trifluoromethyl)pyridin-2-yl)carbamoyl)-2-azabicyclo[3.1.0]hexan-2-yl)-2-oxoethyl)-1H-indazol-5-yl)pyrimidine-2-carboxylate] | < 1000 nM
13 | CC(=O)c1nn(CC(=O)N2C[C@H]3C[C@H]3[C@H]2C(=O)Nc2nc(Br)c(F)cc2C)c2c(C)cc(-c3cnc(C(C)O)nc3)cc12 (stereo partly drawn) [Compound 165, (1R,2S,5S)-3-(2-(3-acetyl-5-(2-(1-hydroxyethyl)pyrimidin-5-yl)-7-methyl-1H-indazol-1-yl)acetyl)-N-(6-bromo-5-fluoro-3-methylpyridin-2-yl)-3-azabicyclo[3.1.0]hexane-2-carboxamide] | < 1000 nM
14 | CC(=O)c1nn(CC(=O)N2C[C@H]3C[C@H]3[C@H]2C(=O)Nc2nc(Br)ccc2Cl)c2c(C)cc(-c3cnc(CO)nc3)cc12 [Compound 75, (1R,2S,5S)-3-(2-(3-acetyl-5-(2-(hydroxymethyl)pyrimidin-5-yl)-7-methyl-11H-indazol-1-yl)acetyl)-N-(6-bromo-3-chloropyridin-2-yl)-3-azabicyclo[3.1.0]hexane-2-carboxamide] | < 1000 nM
15 | CC(=O)c1nn(CC(=O)N2[C@H](C(=O)NCCn3cccn3)C[C@@]3(C)C[C@@H]23)c2c(C)cc(-c3cnc(C)nc3)cc12 [Compound 102, (1R,3S,5R)-2-{2-[3-acetyl-7-methyl-5-(2-methylpyrimidin-5-yl)indazol-1-yl]acetyl}-5-methyl-N-[2-(pyrazol-1-yl)ethyl]-2-azabicyclo[3.1.0]hexane-3-carboxamide] | < 1000 nM
16 | CC(=O)c1cn(CC(=O)N2[C@H](C(=O)Nc3nc(Br)c(F)cc3C)C[C@@]3(C)C[C@@H]23)c2c(C)cc(-c3cnc(C(C)O)nc3)cc12 (some centres unmarked) [Compound 158] | < 1000 nM
17 | CC(=O)c1nn(CC(=O)N2[C@H](C(=O)Nc3cnc(C)c(Br)n3)C[C@@]3(C)C[C@@H]23)c2c(C)cc(-c3cnc(CO)nc3)cc12 [Compound 94, (1R,3S,5R)-2-(2-(3-acetyl-5-(2-(hydroxymethyl)pyrimidin-5-yl)-7-methyl-1H-indazol-1-yl)acetyl)-N-(6-bromo-5-methylpyrazin-2-yl)-5-methyl-2-azabicyclo[3.1.0]hexane-3-carboxamide] | < 1000 nM
18 | CC(=O)c1cn(CC(=O)N2[C@H](C(=O)Nc3nc(Br)ccc3C)C[C@@]3(C)C[C@@H]23)c2c(C)cc(-c3cnc(CO)nc3)cc12 [Compound 62, (1R,3S,5R)-2-(2-(3-acetyl-5-(2-(hydroxymethyl)pyrimidin-5-yl)-7-methyl-11H-indol-1-yl)acetyl)-N-(6-bromo-3-methylpyridin-2-yl)-5-methyl-2-azabicyclo[3.1.0]hexane-3-carboxamide] | < 1000 nM
19 | CC(=O)c1nn(CC(=O)N2[C@H](C(=O)Nc3nc(Br)ccc3C)C[C@@]3(C)C[C@@H]23)c2c(C)cc(-c3cnc([C@@H](C)O)nc3)cc12 (single isomer, unassigned) [Compound 142] | < 1000 nM
20 | COCc1ncc(-c2cc(C)c3c(c2)c(C(C)=O)nn3CC(=O)N2[C@H](C(=O)Nc3nc(Br)ccc3C)C[C@@]3(C)C[C@@H]23)cn1 [Compound 60, (1R,3S,5R)-2-(2-(3-acetyl-5-(2-(methoxymethyl)pyrimidin-5-yl)-7-methyl-11H-indazol-1-yl)acetyl)-N-(6-bromo-3-methylpyridin-2-yl)-5-methyl-2-azabicyclo[3.1.0]hexane-3-carboxamide] | < 1000 nM
21 | CC(=O)c1nn(CC(=O)N2C[C@H](F)C[C@H]2C(=O)Nc2cccc(Br)n2)c2c(C)cc(-c3cnc(C(C)O)nc3)cc12 (stereo partly drawn) [Compound 179, (2S,4R)-1-(2-(3-acetyl-5-(2-(1-hydroxyethyl)pyrimidin-5-yl)-7-methyl-1H-indazol-1-yl)acetyl)-N-(6-bromopyridin-2-yl)-4-fluoropyrrolidine-2-carboxamide] | < 1000 nM
22 | CC(=O)c1nn(CC(=O)N2[C@H]3CC[C@H](C3)[C@H]2C(=O)Nc2nc(Br)c(F)cc2C)c2c(C)cc(-c3cnc(C)nc3)cc12 [Compound 101, (1S,3S,4R)-2-(2-(3-Acetyl-7-methyl-5-(2-methylpyrimidin-5-yl)-1H-indazol-1-yl)acetyl)-N-(6-bromo-5-fluoro-3-methylpyridin-2-yl)-2-azabicyclo[2.2.1]heptane-3-carboxamide] | < 1000 nM
23 | CC(=O)c1nn(CC(=O)N2[C@H](C(=O)NC(C)Cc3ccco3)C[C@@]3(C)C[C@@H]23)c2c(C)cc(-c3cnc(C)nc3)cc12 (stereo partly drawn) [Compound 180, (1R,3S,5R)-2-{2-[3-acetyl-7-methyl-5-(2-methylpyrimidin-5-yl)indazol-1-yl]acetyl}-N-[1-(furan-2-yl)propan-2-yl]-5-methyl-2-azabicyclo[3.1.0]hexane-3-carboxamide] | < 1000 nM
